Laboratory results reported in patent US11464749B2, “Bismuth-thiol compositions and methods of use” (Microbion Corporation, priority 2018, dated 2022).
Converted amounts (≈) assume the structure as drawn. Read-outs that look alike come from different tables or passages of the source.

Assays:
E. faecalis = assay: Broth microdilution MIC (Example 11); settings: VRE Lev^R Cip^R Ery^R
Escherichia coli = settings: E. coli MMX 102 (ATCC 25922); CLSI QC ranges shown in parenthesis; cited from earlier work
Pseudomonas aeruginosa [1] = assay: Broth microdilution MIC (Example 11)
E. faecium = assay: Broth microdilution MIC (Example 11); settings: VRE vanA Lev^R Cip^R Ery^R
Acinetobacter baumannii = assay: Broth microdilution MIC (Example 11)
Pseudomonas aeruginosa [2] = settings: P. aeruginosa MMX 103 (ATCC 27853); CLSI QC ranges shown in parenthesis; cited from earlier work
S. aureus ATCC 29213 = settings: control strain ATCC 29213; per CLSI M100-S24 or provided by Microbion; cited from earlier work
M. abscessus complex = assay: MIC against CF bacterial strains (Example 5); format: cell-based, Mycobacterium abscessus; settings: Mycobacteroides abscessus, read-out: MIC
Procedure: A range of CF-isolated strains of Mycobacterium avium and Mycobacterium abscessus were included; which allows for understanding of the activity against non-tubercular Mycobacteria (NTM). Two distinct bismuth-thiol compounds were evaluated, including BisEDT and BisBDT. […] The CF-isolates of greater clinical relevance, including both M abscessus spp. and Burkholderia spp., were both consistently found to be much more susceptible to BisEDT and BisBDT.

## Gentamicin
E. faecalis; E. faecalis MMX 8960
  MIC: >64 µg/mL
E. faecalis; E. faecalis MMX 8961
  MIC: 8 µg/mL
E. faecalis; E. faecalis MMX 8962
  MIC: >64 µg/mL
Escherichia coli
  CLSI QC range of MIC: (0.25-1) μg/mL
Pseudomonas aeruginosa [1]; P. aeruginosa MMX 103 (ATCC 27853), QC
  MIC: 1 µg/mL
Pseudomonas aeruginosa [1]; P. aeruginosa MMX 1381, MDR, Lev^R, Cip^R, MEM^R, CAZ^R
  MIC: 8 µg/mL
Pseudomonas aeruginosa [1]; P. aeruginosa MMX 2562, MDR, Lev^R, Cip^R, MEM^R, CAZ^R
  MIC: 8 µg/mL
Pseudomonas aeruginosa [1]; P. aeruginosa MMX 3991, MDR, Lev^R, Cip^R, MEM^R, CAZ^R
  MIC: 4 µg/mL
Pseudomonas aeruginosa [1]; P. aeruginosa MMX 4654, IMP-7, Lev^R, Cip^R, MEM^R, CAZ^R
  MIC: >64 µg/mL
Pseudomonas aeruginosa [1]; P. aeruginosa MMX 4697, VIM-2, Lev^R, Cip^R, MEM^R, CAZ^R
  MIC: 4 µg/mL
E. faecium; E. faecium MMX 485
  MIC: >64 µg/mL
E. faecium; E. faecium MMX 752
  MIC: >64 µg/mL
Acinetobacter baumannii; A. baumannii MMX 2592, MDR, Lev^R, Cip^R, MEM^R, CAZ^R, Gm^R
  MIC: >64 µg/mL
Acinetobacter baumannii; A. baumannii MMX 2593, MDR, Lev^R, Cip^R, MEM^R, CAZ^R, Gm^R
  MIC: >64 µg/mL
Acinetobacter baumannii; A. baumannii MMX 3372, MDR, Cip^R, MEM^I, CAZ^I
  MIC: 0.5 µg/mL
Acinetobacter baumannii; A. baumannii MMX 3373, Sensitive
  MIC: 0.12 µg/mL
Acinetobacter baumannii; A. baumannii MMX 4651 (NCTC 13304), MDR, OXA-27, Lev^R, Cip^R, MEM^R, CAZ^R, Gm^I
  MIC: 8 µg/mL
Pseudomonas aeruginosa [2]
  CLSI QC range of MIC: (0.5-2) μg/mL

## CC[C@H]1OC(=O)[C@H](C)[C@@H](O[C@H]2C[C@@](C)(OC)[C@@H](O)[C@H](C)O2)[C@H](C)[C@@H](O[C@@H]2O[C@H](C)C[C@H](N(C)C)[C@H]2O)[C@](C)(OC)C[C@@H](C)C(=O)[C@H](C)[C@@H](O)[C@]1(C)O [Clarithromycin, reference compound]
S. aureus ATCC 29213
  Expected MIC: goal (acceptable range): 0.25 (0.12-0.5) mcg/mL
M. abscessus complex; AMT0130-8, M abscessus/massiliense complex
  MIC: 1 µg/mL (≈ 1.34 µM)
M. abscessus complex; AMT153-9, M abscessus/massiliense complex
  MIC: 2 µg/mL (≈ 2.67 µM)
M. abscessus complex; AMT0493-2, M abscessus/massiliense complex, Amikacin resistant
  MIC: 2 µg/mL (≈ 2.67 µM)
M. abscessus complex; ATCC19977, ATCC 19977, M abscessus/massiliense complex, Macrolide resistant (inducible)
  MIC: > 32 µg/mL
